According to patent US20090258836A1, “EFFECTIVE DELIVERY OF CROSS-SPECIES A3 ADENOSINE-RECEPTOR ANTAGONISTS TO REDUCE INTRAOCULAR PRESSURE” (The Trustees of The University of Pennsylvania, priority 2006, published 2009):
pKi: −log10 of the molar value. “Also recorded” adds a separate entry of the source.

Tests used:
human A2A receptors = human A2A receptors (Homo sapiens, UniProt P29274); settings: literature; read-out: Ki for the binding to human A2A receptors; cited from earlier work
[1] = tested on: HCE (human ciliary epithelial) cell line, NPE cells; assay: Cell volume in isosmotic solution (isosmotic shrinkage), Coulter Counter; format: cell-based
Description: Cell Culture The HCE (human ciliary epithelial) cell line (Carre et al., supra, 1997) is an immortalized NPE cell line obtained from primary cultures of adult human epithelium. […] Eye Res. 57:3057-3063 (1993); Yantorno et al., Exp. Eye Res. 49:423-437 (1989)). […] Cells were passaged every 6-7 days and were studied 8-13 days after passage, after reaching confluence. An immortalized PE-cell line from a primary culture of bovine pigmented ciliary epithelium were also grown under matching conditions. Measurement of Cell Volume in Isosmotic Solution: The volume of PE and NPE cells was measured, since the movement of fluid underlies a change in PE and NPE cell volume, respectively. This is also thought to be the same as the movement of fluid which underlines the secretion of aqueous humor (FIG. 1). […] Parallel aliquots of cells were studied on the same day. One aliquot usually served as a control, and the others were exposed to different experimental conditions at the time of suspension. The same amount of solvent vehicle (dimethylformamide, DMSO or ethanol) was always added to the control and experimental aliquots. […] Cell volumes of isosmotic suspensions were measured with a Coulter Counter (model ZBI-Channelyzer II), using a 100 μm aperture (Civan et al., supra, 1994). As previously described (Wax et al., supra, 1993), the cell volume (vC) of the suspension was taken as the peak of the distribution function. Cell shrinkage was fit as a function of time (t) to a monoexpenential function: […]^0^)/τ] {1) where v∞ is the steady-state cell volume, v0 is the cell volume at the first point (t0) of the time course to be fit, and τ is the time constant of the shrinkage. For purposes of data reduction, the data were normalized to the first time point, taken to be 100% isotonic volume. Fits were obtained by nonlinear least-squares regression analysis, permitting both v∞ and τ to be variables. […] Med. Chem. 37:636-646 (1994; Jacobson et al., supra, 1995; Jacobson et al., FEBS Lett. 336:57-60 (1993)).

mouse IOP [2] = assay: Mouse IOP after topical application, non-invasive pneumotonometry; format: in vivo, Black Swiss mice; settings: for Δ(IOP) Pneumotonometer: topical droplets 200 nM (1% DMSO), 30 min
Description: (§1) The test animals were black Swiss outbred mice of mixed sex, 7-9 weeks old and 25-30 g in weight, obtained from Taconic Inc. (Germantown, N.Y.), and maintained under 12:12-h light/dark illumination cycle and allowed unrestricted access to food and water. Mice were anesthetized with intraperitoneal ketamine ([…]) supplemented by topical proparacaine HCl 0.5% (Allergan, Bausch & Lomb) for the IOP measurements. IOP was measured invasively (SNMS) and non-invasively by pneumotonometry in separate animals.
By comparison, IOP was measured non-invasively by pneumotonometry (OBT) (Avila et al., supra, 2005). As previously described, the commercially available tip of the ocular blood tomography (OBT) pneumotonometer (Blood Flow Analyzer [BFA] probe tip; Paradigm Medical Industries Inc.) was fit to a custom-built mount. Air flow from a constant pressure source was passed through the mount to reach a diaphragm forming the end of the BFA tip. The flow of air displaces the diaphragm outward, permitting escape of the air through holes in the wall of the probe tip into the atmosphere. Pressure was monitored with a transducer connected through a T-connection to the base of the BFA tip. The probe assembly was advanced to the cornea with a three-axis micromanipulator. The probe tip was advanced sufficiently to make contact with the tear film, as was indicated by a shift in the baseline output reading. In a refined method, the tip was withdrawn until the […] was visually displaced from the tear film. The output was then adjusted to zero before advancing the tip again. Contact with the cornea depresses the diaphragm of the BFA tip, occluding access of the air flow to the escape holes and raising the pressure at the base of the tip.
This approach was simplified to expedite identification of the endpoint, and the probe was subsequently advanced in about 10 standardized steps of approximately […] at intervals of about 10 seconds to identify the inflection region (Wang et al., supra, 2006). […] The pneumotonometric estimates of IOP were previously found to agree with manometric measurements in cannulated preparations and with estimates obtained by the servo-null technique (Avila et al., supra, 2005). Having established the baseline value of IOP, the position along the axis of advance of the micromanipulator was noted, and the probe was retracted from contact with the cornea. Subsequent measurements of IOP at later time points were obtained by advancing the probe tip to the same position, with the placement of the mouse maintained stereotactically. The measurements were conducted at 10-min intervals to avoid potential artifacts associated with prolonged pressure on the cornea.
(§2) Ketamine HCl was purchased from Phoenix Pharmaceutical Inc. (St. Joseph, Mo.). Other drugs were obtained from Sigma Chemical (St. Louis, Mo.). Drugs were applied topically with an Eppendorf pipette. […] The final droplet solution contained the drugs at the stated concentrations together with <2% DMSO and 0.0005% benzalkonium chloride at an osmolality of 295-300 mOsm. DMSO was omitted, altogether, from droplets containing the hydrophilic compounds adenosine, carbachol and carboxyfluorescein.
(§3) Effects on invasively-measured IOP were measured 10 min after topical application because after this time, the continued presence of the micropipette can be associated with a downward drift of the IOP, even under control conditions. In contrast, smaller droplets ([…]) were applied to the eye more frequently (three times instead of once) with the non-invasive technique, in order to forestall drying of the eye associated with the airflow from the pneumotonometer. With the non-invasive protocol, the IOP was stable for 30 min under control conditions.
In Table 1, an endpoint of 10 minutes was used for the invasive measurements in light of the above-discussed downward drift of the IOP, even under control conditions. […]

mouse IOP [3] = assay: Mouse IOP after topical application, invasive servo-null micropipette system (SNMS); format: in vivo, Black Swiss mice
Description: as §1
By the SNMS approach (Avila et al., supra, 2001), the exploring micropipette, of […] outer diameter, was filled with a highly conducting solution and advanced across the cornea into the anterior chamber. A refined technique by Wang et al., Invest. Opthalmol. Vis. Sci. (serial online) (Aug. 31, 2006) available at www.iovs.org/egi/letters/46/9/3274#422, enhanced stability and reduce the background noise of the records, permitting fabrication of micropipettes whose resistance is 0.1-0.3 MΩ, rather than the 0.25-0.4 MΩ used initially. The filling solution was reduced from 3M KCl to 2M NaCl, rather than 3 M KCl. The resistance of the filled micropipette was balanced in a bridge circuit, and the tip was then advanced across the cornea. Upon entering the anterior chamber of the eye, the IOP forces the much lower-conducting aqueous humor into the micropipette tip, displacing the original filling solution. The micropipette resistance was thereby increased, unbalancing the bridge circuit and triggering a bellows to provide a counter-pressure, restoring the position of the filling solution and returning the resistance to its initial value. Thus, the value of the counter-pressure equals the IOP. As in the past (Avila et al., supra, 2001), the stability of the records permitted continuous measurements for tens of minutes during the course of drug applications.
as §2, §3
In Table 1, an endpoint of 10 minutes was used for the invasive measurements in light of the above-discussed downward drift of the IOP, even under control conditions. Also the need for smaller, more frequent droplets are discussed above with regard to the non-invasive technique using the pneumotonometer. As above, with the non-invasive protocol, the IOP was stable for 30 minutes under control conditions.

cultured human NPE cells = settings: cited from earlier work
mouse IOP [4] = assay: Mouse IOP monitored with SNMS, protocols of Yang et al. 2005; format: in vivo
Description: Pharmacol. 65:1675-1684 (2003)), is effective both in blocking adenosine-triggered shrinkage of cultured human NPE cells and in lowering IOP of mice (Yang et al., supra, 2005). MRS-1292 was tested on the mouse for two reasons. Transgenic mice provide a convenient opportunity for studying the molecular physiology and pharmacology in the living animal ([…] al., supra, 2003). Second, measurement of IOP permitted us to assess the effects of MRS-1292 on the target parameter. […] Therefore, to directly assess the effect of MRS-1292 in vivo in the mouse, IOP was monitored before and after drug application. IOP was monitored with the Servo-Null-Micropipette System (SNMS). The test protocols are described in detail by Yang et al. supra, 2005, herein incorporated by reference. […] In comparison, addition of the same volume of saline at the same osmolality produced no significant change in IOP (-0.3±1.2 mmHg, n=6, p>0.8) 14 min later. […] To estimate an approximate range, “penetrance” was defined by Yang et al. as the ratio of the published Ki value at receptors in vitro to the minimally effective droplet concentration, for a number of adenosine agonists and antagonists. Thus, penetrance ranges from 1:100 to 1:1000 for purinergic drugs that have been tested in the mouse, and it is not very different from the drug penetrance of 1:100 for agents applied topically to rabbits and primates. This rule of thumb also applies to acylguanidine blockers and bumetanide, whose topical effects have also been studied in the mouse eye. Thus, the approximately 1:1000 penetrance that Yang et al. reported in the 2003 citation for MRS 1292 in the present experiments is consistent with past studies

pupil size = assay: Pupil diameter after topical carbachol with or without corneal impalement; format: in vivo, mouse
Description: as §1
To measure pupil diameter, the pupil and an adjacent ruler having 1-mm graticules were imaged with a digital camera. Care was taken to avoid applying mechanical stress, and consequently to avoid displacing the micropipette tip from its position in the anterior chamber. Lengths were measured by IMAGE J (National Institutes of Health) and the pupil diameters were calibrated to the ruler.
Pupillary diameter was measured before and 10 min after topical addition of […] containing 40 mM ([…]) of the miotic carbachol to both eyes of the mouse. One eye was not punctured; the other eye was impaled with the SNMS micropipette. Either the right or left eye of each mouse was chosen randomly for impalement. At so low a topical concentration and in the absence of a micropipette, exposure to carbachol for 10 min had no significant effect on pupillary size. The baseline diameter was 1.80±0.11, and was insignificantly changed by carbachol application, increasing by 0.12±0.17 mm (n=6, P>0.4).

Sequence of human A2A receptors (P29274 whole entry): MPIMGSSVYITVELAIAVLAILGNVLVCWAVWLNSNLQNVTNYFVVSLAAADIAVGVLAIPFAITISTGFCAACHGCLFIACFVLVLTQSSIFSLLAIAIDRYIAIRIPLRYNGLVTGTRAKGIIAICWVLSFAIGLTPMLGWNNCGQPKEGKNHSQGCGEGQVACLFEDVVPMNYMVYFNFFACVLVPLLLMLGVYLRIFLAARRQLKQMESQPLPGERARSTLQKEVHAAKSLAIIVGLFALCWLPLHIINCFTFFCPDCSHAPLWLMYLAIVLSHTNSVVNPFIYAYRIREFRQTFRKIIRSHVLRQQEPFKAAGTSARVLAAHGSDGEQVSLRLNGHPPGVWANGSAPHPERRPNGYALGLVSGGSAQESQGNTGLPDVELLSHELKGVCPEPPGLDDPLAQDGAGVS

For “3-ethyl 5-benzyl-2-methyl-6-phenyl-4-styryl-1,4-(±)-dihydropyridine-3,5-dicarboxylate [MRS-1097]”, the pKi (human A2A receptors) is listed as 5.32.
For CCNC(=O)[C@H]1O[C@@H](n2cnc3c(N)nc(NCCc4ccc(CCC(=O)O)cc4)nc32)[C@H](O)[C@@H]1O [CGS-21680], the “effect of agonist on isosmotic volume of NPE cells” value (“effect of agonist” for short) ([1]; agonist 100 nM) was “exerted no effect; also recorded: no detectable effect” and the “effect of agonist” value ([1]; agonist 3 μM) was “triggered isosmotic shrinkage; also recorded: did trigger isosmotic shrinkage”.
For OC[C@H]1O[C@@H](n2cnc3c(NC4CCCC4)ncnc32)[C@H](O)[C@@H]1O [CPA, N^6-cyclopentyladenosine], the “effect of agonist” value ([1]; 30 nM and 1 μM (data not shown, N=3)) was “no significant shrinkage”, the “effect of agonist” value ([1]; agonist 100 nM) was “had little effect; also recorded: small slow effect of uncertain significance” and the “effect of agonist” value ([1]; agonist 3 μM) was “none at all; also recorded: no significant shrinkage”.
With CNC(=O)[C@H]1O[C@@H](n2cnc3c(NCc4cccc(I)c4)nc(Cl)nc32)[C@H](O)[C@@H]1O [Cl-IB-MECA] the “effect on mouse IOP measured non-invasively (in words)” value (mouse IOP [2]; pneumotonometry, topical, MRS-3833 at 200 nM) was “produced no significant increase in IOP”, the “Δ(IOP) Pneumotonometer” value (mouse IOP [2]) was “+0.7 ± 1.4 mm Hg” and the “increase in IOP over baseline” value (mouse IOP [3]; SNMS, after 10 min, adenosine 10 mM, Cl-IB-MECA 200 nM droplet) was 10.0±2.9 mmHg. The “Δ(IOP) Servo-Null” value (mouse IOP [3]; topical droplet 200 nM (1% DMSO), endpoint 10 min) was “+10.0 ± 2.9 mm Hg” and the “shrinkage of HCE cells” value ([1]; in the presence of gramicidin, concentration not given) was “produced shrinkage of HCE cells”.
For O=C1NCCC12O[C@@H](n1cnc3c(NCc4cccc(I)c4)ncnc31)[C@H](O)[C@@H]2O (stereo partly drawn) [MRS-1292], the “time constant (τ) of the adenosine-triggered shrinkage in the presence of MRS-1292” value (cultured human NPE cells; 10 μM adenosine plus MRS-1292) is given as 11.7 ± 2.6 min, the “Δv∞ steady-state shrinkage” value (cultured human NPE cells; 10 μM adenosine, 2 min pretreatment with MRS-1292, gramicidin, 60 min study) is given as 1.9±0.2% and the “time of maximum reduction in IOP, mean” value (mouse IOP [4]; 25 μM) is given as 15 ± 1 min. The “maximum reduction in IOP” value (mouse IOP [4]; droplets containing 25 μM) was 4.4±0.8 mm Hg.
In the case of CCOC(=O)c1c(CC)c(C(=O)SCC)c(CC)[n+](C)c1-c1ccccc1.[I-] [MRS-1649, 2,4-diethyl-1-methyl-3-(ethylsulfanylcarbonyl)-5-ethyloxycarbonyl-6-phenylpyridium iodide], the “effect on IOP in the mouse (in words)” value (mouse IOP [3]; tested by the inventors, technique not given) was “found to lower IOP in the mouse”.
For CCC(=O)O[C@@H]1[C@H](OC(=O)CC)[C@@H](C(=O)NC)O[C@H]1n1cnc2c(NCc3cccc(I)c3)nc(Cl)nc21 [MRS-3823], the “Δ(IOP) Pneumotonometer” value (mouse IOP [2]) was “+0.2 ± 0.8 mm Hg”.
With C[N+](C)(C)CCOC(N)=O [carbachol] the “effect on pupil size” value (pupil size; 4 mM droplet, with or without corneal impalement (n=2)) was “had no effect on pupil size”, the “reduction of the pupil diameter” value (pupil size; 40 mM droplet, 10 min, cornea impaled with micropipette) was 38% and the “contraction of the pupil diameter” value (pupil size; 40 mM droplet, 10 min, cornea impaled, baseline 2.00±0.15 mm) was 0.76±0.09 mm. The “change (increase) of pupil diameter” value (pupil size; 40 mM droplet, 10 min, eye not punctured, baseline 1.80±0.11) was 0.12±0.17 mm.
